Values joined by “and” are separate entries in the source; they are usually repeats but may differ in a detail not shown here. Equal entries are not always repeated. Inconclusive results and toxic doses are left out. Cut-off read from the data, not from the text of the source: active = T/C of 150% or more; inactive = T/C below 125%.
System: L1210 leukemia ip in BDF1 mice, survival T/C
Assay: NCI In Vivo Anticancer Drug Screen. Data for tumor model L1210 Leukemia (intraperitoneal) in B6D2F1 (BDF1) mice
Details: endpoint: mean survival time, higher = longer survival
Method in brief: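 Transplantable tumor model; survival measured in treated vs vehicle control mice. Value = treated/control.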

[1] = dose: 100.0 mg/kg/injection, schedule: Q01DX001 (ip), vehicle: saline
[2] = dose: 200.0 mg/kg/injection, schedule: Q01DX001 (ip), vehicle: saline
[3] = dose: 400.0 mg/kg/injection, schedule: Q01DX001 (ip), vehicle: saline
[4] = dose: 100.0 mg/kg/injection, schedule: Q01DX009 (ip), vehicle: Klucel (hydroxypropylcellulose) (HPC)
[5] = dose: 100.0 mg/kg/injection, schedule: Q04DX003 (ip), vehicle: Klucel (hydroxypropylcellulose) (HPC)
[6] = dose: 200.0 mg/kg/injection, schedule: Q01DX009 (ip), vehicle: Klucel (hydroxypropylcellulose) (HPC)
[7] = dose: 200.0 mg/kg/injection, schedule: Q04DX003 (ip), vehicle: Klucel (hydroxypropylcellulose) (HPC)
[8] = dose: 400.0 mg/kg/injection, schedule: Q01DX009 (ip), vehicle: Klucel (hydroxypropylcellulose) (HPC)
[9] = dose: 400.0 mg/kg/injection, schedule: Q04DX003 (ip), vehicle: Klucel (hydroxypropylcellulose) (HPC)
[10] = dose: 100.0 mg/kg/injection, schedule: Q04DX003 (ip), vehicle: saline with Tween-80
[11] = dose: 200.0 mg/kg/injection, schedule: Q04DX003 (ip), vehicle: saline with Tween-80
[12] = dose: 100.0 mg/kg/injection, schedule: Q01DX009 (ip), vehicle: saline
[13] = dose: 200.0 mg/kg/injection, schedule: Q01DX009 (ip), vehicle: saline
[14] = dose: 400.0 mg/kg/injection, schedule: Q01DX009 (ip), vehicle: saline
[15] = dose: 400.0 mg/kg/injection, schedule: Q04DX003 (ip), vehicle: saline with Tween-80

Measured: T/C

Cc1ccc(C)c(SC2CCCCC2=O)c1 (stereo not given)
inactive: [1] 94 % of control | [2] 101 % of control | [3] 97 % of control

O=C(/C=C/C(=O)Oc1ccc(Cl)cc1)Oc1ccc(Cl)cc1
inactive: dose: 100.0 mg/kg/injection, schedule: Q01DX001 (ip), vehicle: Klucel (hydroxypropylcellulose) (HPC) 96 % of control | [4] 102 % of control | [5] 97 % of control | dose: 200.0 mg/kg/injection, schedule: Q01DX001 (ip), vehicle: Klucel (hydroxypropylcellulose) (HPC) 101 % of control | [6] 102 % of control | [7] 108 % of control | dose: 400.0 mg/kg/injection, schedule: Q01DX001 (ip), vehicle: Klucel (hydroxypropylcellulose) (HPC) 99 % of control | [8] 100 % of control | [9] 107 % of control

COC(=O)C1CCCC23CC(CC12)C(C)(C)C3Br (stereo not given)
inactive: [4] 94 % of control | [5] 97 % of control | [6] 97 % of control | [7] 90 % of control | [8] 90 % of control | [9] 97 % of control

CCCCS/C=C1/Sc2cc[nH]c2C1=O
inactive: [5] 96 % of control | [7] 96 % of control | [9] 94 % of control

CC(=O)c1ccccc1OC(=S)N(C)C
inactive: [10] 87 % of control | [11] 95 % of control

O=C(NC(=O)c1ccccc1)Nc1cccc2ccccc12
inactive: dose: 100.0 mg/kg/injection, schedule: Q04DX002 (ip), vehicle: gum acacia 97 % of control | dose: 200.0 mg/kg/injection, schedule: Q04DX002 (ip), vehicle: gum acacia 90 % of control | dose: 400.0 mg/kg/injection, schedule: Q04DX002 (ip), vehicle: gum acacia 90 % of control

O=S(=O)(CCO)CCO
inactive: dose: 50.0 mg/kg/injection, schedule: Q01DX009 (ip), vehicle: saline 100 % of control | [12] 100 % of control and 88 % of control | [13] 96 % of control and 100 % of control | [14] 97 % of control

CCS(=O)(=O)CC
inactive: [12] 101 % of control | dose: 100.0 mg/kg/injection, schedule: Q04DX003 (ip), vehicle: saline 100 % of control | [13] 106 % of control | dose: 200.0 mg/kg/injection, schedule: Q04DX003 (ip), vehicle: saline 107 % of control | [14] 97 % of control | dose: 400.0 mg/kg/injection, schedule: Q04DX003 (ip), vehicle: saline 95 % of control

CC(CNN=C(N)N)NN=C(N)N (stereo not given)
inactive: dose: 30.0 mg/kg/injection, schedule: Q01DX Z (ip), vehicle: saline 116 % of control | dose: 60.0 mg/kg/injection, schedule: Q01DX Z (ip), vehicle: saline 100 % of control | dose: 120.0 mg/kg/injection, schedule: Q01DX Z (ip), vehicle: saline 96 % of control

CN(C)CCN(C)C(=O)C1C(c2ccccc2)C1c1ccccc1 (stereo not given)
inactive: dose: 12.5 mg/kg/injection, schedule: Q04DX002 (ip), vehicle: Klucel (hydroxypropylcellulose) (HPC) 100 % of control | dose: 25.0 mg/kg/injection, schedule: Q04DX002 (ip), vehicle: Klucel (hydroxypropylcellulose) (HPC) 100 % of control | dose: 50.0 mg/kg/injection, schedule: Q04DX002 (ip), vehicle: Klucel (hydroxypropylcellulose) (HPC) 87 % of control

Cc1c2cnccc2c(C)c2c1sc1ccccc12
inactive: dose: 75.0 mg/kg/injection, schedule: Q01DX001 (ip), vehicle: other 101 % of control | dose: 150.0 mg/kg/injection, schedule: Q01DX001 (ip), vehicle: other 106 % of control | dose: 300.0 mg/kg/injection, schedule: Q01DX001 (ip), vehicle: other 124 % of control

ClC(Cl)(Cl)C1NCCO1 (stereo not given)
inactive: [4] 96 % of control | [5] 102 % of control | [6] 97 % of control | [7] 94 % of control | [8] 89 % of control | [9] 94 % of control

C1CCC2(CC1)SSC1(CCCCC1)S2
inactive: dose: 100.0 mg/kg/injection, schedule: Q04DX003 (ip), vehicle: other 95 % of control | dose: 200.0 mg/kg/injection, schedule: Q04DX003 (ip), vehicle: other 98 % of control | dose: 400.0 mg/kg/injection, schedule: Q04DX003 (ip), vehicle: other 98 % of control

CSc1nc(Cl)cc(N2CC2C)n1 (stereo not given)
inactive: dose: 25.0 mg/kg/injection, schedule: Q01DX Z (ip), vehicle: methylcellulose (MC) 96 % of control

Cc1cc(NC(=O)Nc2ccc(Cl)cc2)no1
inactive: dose: 100.0 mg/kg/injection, schedule: Q04DX003 (ip), vehicle: saline sonified 95 % of control | dose: 200.0 mg/kg/injection, schedule: Q04DX003 (ip), vehicle: saline sonified 87 % of control | dose: 400.0 mg/kg/injection, schedule: Q04DX003 (ip), vehicle: saline sonified 87 % of control

N#Cc1cn(-c2ccc(Cl)cc2)c2ncccc12
inactive: dose: 25.0 mg/kg/injection, schedule: Q01DX001 (ip), vehicle: saline 100 % of control | dose: 50.0 mg/kg/injection, schedule: Q01DX001 (ip), vehicle: saline 100 % of control | dose: 100.0 mg/kg/injection, schedule: Q01DX001 (ip), vehicle: saline with Tween-80 88 % of control | [1] 100 % of control | [2] 87 % of control | [3] 102 % of control

O=C(O)CCC(NC(=O)OCc1ccccc1)C(=O)NC(Cc1ccccc1)C(=O)O (stereo not given)
inactive: [10] 102 % of control | [11] 101 % of control | [15] 101 % of control

CC(C)c1ccc(/C(=N\NC(N)=S)C2CC2)cc1
inactive: dose: 1.0 mg/kg/injection, schedule: Q01DX Z (ip), vehicle: methylcellulose (MC) 93 % of control | dose: 2.0 mg/kg/injection, schedule: Q01DX Z (ip), vehicle: methylcellulose (MC) 91 % of control | dose: 5.0 mg/kg/injection, schedule: Q01DX Z (ip), vehicle: methylcellulose (MC) 94 % of control | dose: 10.0 mg/kg/injection, schedule: Q01DX Z (ip), vehicle: methylcellulose (MC) 102 % of control

COc1ccc(NC(=O)C(c2ccccc2)c2ccccc2)cc1
inactive: [10] 92 % of control | [11] 93 % of control | [15] 92 % of control

O=[N+]([O-])c1ccc(C2=NCCO2)cc1
inactive: dose: 100.0 mg/kg/injection, schedule: Q04DX002 (ip), vehicle: saline 104 % of control | dose: 200.0 mg/kg/injection, schedule: Q04DX002 (ip), vehicle: saline 114 % of control | dose: 400.0 mg/kg/injection, schedule: Q04DX002 (ip), vehicle: saline 104 % of control

O=C1C2CCC(=O)N2c2ccccc2S(=O)(=O)C1c1ccccc1 (stereo not given)
inactive: dose: 12.5 mg/kg/injection, schedule: Q01DX009 (ip), vehicle: Klucel (hydroxypropylcellulose) (HPC) 95 % of control | dose: 25.0 mg/kg/injection, schedule: Q01DX009 (ip), vehicle: Klucel (hydroxypropylcellulose) (HPC) 98 % of control | dose: 25.0 mg/kg/injection, schedule: Q04DX003 (ip), vehicle: Klucel (hydroxypropylcellulose) (HPC) 96 % of control | dose: 50.0 mg/kg/injection, schedule: Q01DX009 (ip), vehicle: Klucel (hydroxypropylcellulose) (HPC) 91 % of control | dose: 50.0 mg/kg/injection, schedule: Q04DX003 (ip), vehicle: Klucel (hydroxypropylcellulose) (HPC) 96 % of control

C=Cc1cc[n+](Cc2ccc(C[n+]3ccc(C=C)cc3)cc2)cc1
inactive: dose: 100.0 mg/kg/injection, schedule: Q01DX001 (ip), vehicle: carboxymethylcellulose (CMC) 91 % of control | dose: 200.0 mg/kg/injection, schedule: Q01DX001 (ip), vehicle: carboxymethylcellulose (CMC) 91 % of control | dose: 400.0 mg/kg/injection, schedule: Q01DX001 (ip), vehicle: carboxymethylcellulose (CMC) 87 % of control

From PubChem BioAssay AID248 (DTP/NCI, 2004)
